According to patent US12071434B2, “Heterocyclic compound” (Takeda Pharmaceutical Company Limited, priority 2018, dated 2024):

Biological target: T1, human orexin type 2 receptor (Homo sapiens, UniProt O43614)
T1 construct: expressed in transfected cells
T1 sequence (O43614 1-444): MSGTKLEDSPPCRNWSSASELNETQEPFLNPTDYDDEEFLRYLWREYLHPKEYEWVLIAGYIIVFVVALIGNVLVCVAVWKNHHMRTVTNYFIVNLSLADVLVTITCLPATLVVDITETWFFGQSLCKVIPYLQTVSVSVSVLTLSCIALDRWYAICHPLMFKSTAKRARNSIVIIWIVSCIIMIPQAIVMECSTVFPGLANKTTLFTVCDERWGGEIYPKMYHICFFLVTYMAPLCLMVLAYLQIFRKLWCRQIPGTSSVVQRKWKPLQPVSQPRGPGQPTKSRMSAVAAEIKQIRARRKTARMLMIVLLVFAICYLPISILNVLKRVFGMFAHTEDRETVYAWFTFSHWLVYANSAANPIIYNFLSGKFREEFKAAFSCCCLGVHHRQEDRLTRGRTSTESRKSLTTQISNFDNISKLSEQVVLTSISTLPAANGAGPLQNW
Experiment: Measurement of orexin type 2 receptor agonist activity (calcium fluorescence, Fluo-4 AM, FDSS) in CHO cells forcibly expressing human OX2 receptor
Format: cell-based
Conditions: test compound 3 μM, DMSO = 0%, orexin A (human) 10 nM = 100%
Text: To obtain a cell clone stably expressing human orexin type 2 receptor, human orexin type 2 receptor cDNA was inserted into pcDNA3.1(+) plasmid vector (Invitrogen), and a plasmid DNA for expression of human orexin type 2 receptor (pcDNA3.1(+)/hOX2R) was cloned. The plasmid DNA was introduced into CHO-dhfr cell by an electroporation method, and human orexin type 2 receptor expressing clone cells were obtained by limiting dilution method by using G418 drug resistance as a selection marker.
CHO cells forcibly expressing human OX2 receptor were seeded in each well of 384 well black transparent bottom plate (BD Falcon) at 7,500 cells/well, and cultured for one day in a 5% CO2 incubator at 37° C. After removal of the medium in the cell plate, assay buffer A containing a calcium indicator (HBSS (Thermo Fisher Scientific), 20 mM HEPES (Thermo Fisher Scientific), 0.1% BSA (Sigma-Aldrich), 2.5 μg/mL Fluo-4 AM (DOJINDO Chemical), 0.08% Pluronic F127 (DOJINDO Chemical), 1.25 mM probenecid (DOJINDO Chemical)) was added at 30 μL/well. The plate was stood for 30 min in a 5% CO2 incubator at 37° C., and further stood at room temperature for 30 min. A test compound prepared by diluting with assay buffer B (HBSS, 20 mM HEPES, 0.1% BSA) was added at 10 μL/well, and the fluorescence value was measured by FDSSpCELL (Hamamatsu Photonics K.K.) every one sec for 1 min, and thereafter every two sec for 1 min 40 sec. The activity (%) of the test compound was calculated assuming that variation in the fluorescence value when DMSO was added instead of the test compound was 0%, and variation in the fluorescence value when orexin A (human) (PEPTIDE INSTITUTE, INC.) was added at the final concentration of 10 nM was 100%.

Cc1ccc2n(c1=O)C(Cc1cccc(-c3cccc(F)c3)c1)C(NC(=O)[C@@H]1CCCO1)CC2 (mixture of isomers) [Example 26, (2S)-N-{(3SR,4SR)-4-[(3′-fluoro[1,1′-biphenyl]-3-yl)methyl]-7-methyl-6-oxo-1,3,4,6-tetrahydro-2H-quinolizin-3-yl}oxolane-2-carboxamide]
0X2R agonist activity (3 μM, %): 101%

Cn1cc2n(c1=O)C(Cc1cccc(-c3ccccc3)c1)C(NC(=O)[C@@H]1CCCO1)CC2 (mixture of isomers) [Example 205, (2S)-N-{(5SR,6SR)-5-[([1,1′-biphenyl]-3-yl)methyl]-2-methyl-3-oxo-2,3,5,6,7,8-hexahydroimidazo[1,5-a]pyridin-6-yl}oxolane-2-carboxamide]
0X2R agonist activity (3 μM, %): 81%

CS(=O)(=O)N[C@H]1CCc2cccc(=O)n2[C@H]1Cc1cccc(-c2ccccc2)c1 (racemic) [Example 1, rac-N-{(3S,4S)-4-[([1,1′-biphenyl]-3-yl)methyl]-6-oxo-1,3,4,6-tetrahydro-2H-quinolizin-3-yl}methanesulfonamide]
0X2R agonist activity (3 μM, %): 79%

Cc1ccc(=O)n2c1CC[C@H](NS(C)(=O)=O)[C@@H]2Cc1cccc(-c2ccccc2)c1 (racemic) [Example 8, rac-N-{(3S,4S)-4-[([1,1′-biphenyl]-3-yl)methyl]-9-methyl-6-oxo-1,3,4,6-tetrahydro-2H-quinolizin-3-yl}methanesulfonamide]
0X2R agonist activity (3 μM, %): 97%

CCS(=O)(=O)NC1CCc2ccc(C)c(=O)n2C1Cc1cccc(-c2ccccc2)c1 (racemic) [Example 11, rac-N-{(3S,4S)-4-[([(1,1′-biphenyl]-3-yl)methyl]-7-methyl-6-oxo-1,3,4,6-tetrahydro-2H-quinolizin-3-yl}ethanesulfonamide]
0X2R agonist activity (3 μM, %): 106%

CS(=O)(=O)NC1CCc2ccc(C(F)(F)F)c(=O)n2C1Cc1cccc(-c2ccccc2)c1 (racemic) [Example 12, rac-N-[(3S,4S)-4-[([1,1′-biphenyl]-3-yl]methyl-6-oxo-7-(trifluoromethyl)-1,3,4,6-tetrahydro-2H-quinolizin-3-yl]methanesulfonamide]
0X2R agonist activity (3 μM, %): 112%

Cc1cc(C)c(=O)n2c1CC[C@H](NS(C)(=O)=O)[C@@H]2Cc1cccc(-c2ccccc2)c1 (racemic) [Example 13, rac-N-{(3S,4S)-4-[([1,1′-biphenyl]-3-yl)methyl]-7,9-dimethyl-6-oxo-1,3,4,6-tetrahydro-2H-quinolizin-3-yl}methanesulfonamide]
0X2R agonist activity (3 μM, %): 112%

Cc1cc2n(c(=O)c1)[C@@H](Cc1cccc(-c3ccccc3)c1)[C@@H](NS(C)(=O)=O)CC2 (racemic) [Example 14, rac-N-{(3S,4S)-4-[([1,1′-biphenyl]-3-yl)methyl]-8-methyl-6-oxo-1,3,4,6-tetrahydro-2H-quinolizin-3-yl}methanesulfonamide]
0X2R agonist activity (3 μM, %): 107%

CS(=O)(=O)N[C@H]1CCc2ccc(Cl)c(=O)n2[C@H]1Cc1cccc(-c2ccccc2)c1 (racemic) [Example 15, rac-N-{(3S,4S)-4-[([1,1′-biphenyl]-3-yl)methyl]-7-chloro-6-oxo-1,3,4,6-tetrahydro-2H-quinolizin-3-yl}methanesulfonamide]
0X2R agonist activity (3 μM, %): 106%

CS(=O)(=O)N[C@H]1CCc2ccc(F)c(=O)n2[C@H]1Cc1cccc(-c2ccccc2)c1 (racemic) [Example 16, rac-N-{(3S,4S)-4-[([1,1′-biphenyl]-3-yl)methyl]-7-fluoro-6-oxo-1,3,4,6-tetrahydro-2H-quinolizin-3-yl}methanesulfonamide]
0X2R agonist activity (3 μM, %): 95%

Cc1cc2n(c(=O)c1C)[C@@H](Cc1cccc(-c3ccccc3)c1)[C@@H](NS(C)(=O)=O)CC2 (racemic) [Example 19, rac-N-{(3S,4S)-4-[([1,1′-biphenyl]-3-yl)methyl]-7,8-dimethyl-6-oxo-1,3,4,6-tetrahydro-2H-quinolizin-3-yl}methanesulfonamide]
0X2R agonist activity (3 μM, %): 122%

Cc1cc(=O)n2c(c1C)CC[C@H](NS(C)(=O)=O)[C@@H]2Cc1cccc(-c2ccccc2)c1 (racemic) [Example 20, rac-N-{(3S,4S)-4-[([1,1′-biphenyl]-3-yl)methyl]-8,9-dimethyl-6-oxo-1,3,4,6-tetrahydro-2H-quinolizin-3-yl}methanesulfonamide]
0X2R agonist activity (3 μM, %): 113%

Cc1cc(F)c2n(c1=O)[C@@H](Cc1cccc(-c3ccccc3)c1)[C@@H](NS(C)(=O)=O)CC2 (racemic) [Example 21, rac-N-{(3S,4S)-4-[([1,1′-biphenyl]-3-yl)methyl]-9-fluoro-7-methyl-6-oxo-1,3,4,6-tetrahydro-2H-quinolizin-3-yl}methanesulfonamide]
0X2R agonist activity (3 μM, %): 101%

CS(=O)(=O)N[C@H]1CCc2ccc(C3CC3)c(=O)n2[C@H]1Cc1cccc(-c2ccccc2)c1 (racemic) [Example 22, rac-N-{(3S,4S)-4-[([1,1′-biphenyl]-3-yl)methyl]-7-cyclopropyl-6-oxo-1,3,4,6-tetrahydro-2H-quinolizin-3-yl}methanesulfonamide]
0X2R agonist activity (3 μM, %): 106%

CCc1ccc2n(c1=O)C(Cc1cccc(-c3ccccc3)c1)C(NS(C)(=O)=O)CC2 (racemic) [Example 27, rac-N-{(3S,4S)-4-[([1,1′-biphenyl]-3-yl)methyl]-7-ethyl-6-oxo-1,3,4,6-tetrahydro-2H-quinozilin-3-yl}methanesulfonamide]
0X2R agonist activity (3 μM, %): 99%

CS(=O)(=O)N[C@H]1CCc2ccc(C#N)c(=O)n2[C@H]1Cc1cccc(-c2ccccc2)c1 (racemic) [Example 28, rac-N-{(3S,4S)-4-[([1,1′-biphenyl]-3-yl)methyl]-7-cyano-6-oxo-1,3,4,6-tetrahydro-2H-quinolizin-3-yl}methanesulfonamide]
0X2R agonist activity (3 μM, %): 97%

CN(C)c1ccc2n(c1=O)[C@@H](Cc1cccc(-c3ccccc3)c1)[C@@H](NS(C)(=O)=O)CC2 (racemic) [Example 31, rac-N-[(3S,4S)-4-[([1,1′-biphenyl]-3-yl)methyl]-7-(dimethylamino)-6-oxo-1,3,4,6-tetrahydro-2H-quinolizin-3-yl]methanesulfonamide]
0X2R agonist activity (3 μM, %): 100%

CC(C)(O)c1ccc2n(c1=O)[C@@H](Cc1cccc(-c3ccccc3)c1)[C@@H](NS(C)(=O)=O)CC2 (racemic) [Example 33, rac-N-[(3S,4S)-4-[([1,1′-biphenyl]-3-yl)methyl]-7-(2-hydroxypropan-2-yl)-6-oxo-1,3,4,6-tetrahydro-2H-quinolizin-3-yl]methanesulfonamide]
0X2R agonist activity (3 μM, %): 87%

COc1ccc2n(c1=O)[C@@H](Cc1cccc(-c3ccccc3)c1)[C@@H](NS(C)(=O)=O)CC2 (racemic) [Example 34, rac-N-{(3S,4S)-4-[([1,1′-biphenyl]-3-yl)methyl]-7-methoxy-6-oxo-1,3,4,6-tetrahydro-2H-quinolizin-3-yl}methanesulfonamide]
0X2R agonist activity (3 μM, %): 105%

CCc1ccc2n(c1=O)C(Cc1cccc(-c3cccc(F)c3)c1F)C(NC(=O)C(=O)N(C)C)CC2 (racemic) [Example 39, rac-N~2~-{(3S,4S)-4-[2,3′-difluoro[1,1′-biphenyl]-3-yl)methyl]-7-ethyl-6-oxo-1,3,4,6-tetrahydro-2H-quinolizin-3-yl}-N~1~,N~1~-dimethylethanediamide]
0X2R agonist activity (3 μM, %): 89%

CC(C)c1ccc2n(c1=O)[C@@H](Cc1cccc(-c3cccc(F)c3)c1F)[C@@H](NC(=O)C(=O)N(C)C)CC2 (racemic) [Example 40, rac-N~2~-[(3S,4S)-4-[(2,3′-difluoro[1,1′-biphenyl]-3-yl)methyl]-6-oxo-7-(propan-2-yl)-1,3,4,6-tetrahydro-2H-quinolizin-3-yl]-N~1~,N~1~-dimethylethanediamide]
0X2R agonist activity (3 μM, %): 93%

Cn1ccc2c(c1=O)[C@@H](Cc1cccc(-c3ccccc3)c1)[C@@H](NS(C)(=O)=O)CC2 (racemic) [Example 46, rac-N-{(7S,8R)-8-[([1,1′-biphenyl]-3-yl)methyl]-2-methyl-1-oxo-1,2,5,6,7,8-hexahydroisoquinolin-7-yl}methanesulfonamide]
0X2R agonist activity (3 μM, %): 102%

CCn1ccc2c(c1=O)[C@@H](Cc1cccc(-c3ccccc3)c1)[C@@H](NS(C)(=O)=O)CC2 (racemic) [Example 47, rac-N-{(7S,8R)-8-[([1,1′-biphenyl]-3-yl)methyl]-2-ethyl-1-oxo-1,2,5,6,7,8-hexahydroisoquinolin-7-yl}methanesulfonamide]
0X2R agonist activity (3 μM, %): 96%
